Measured values: the NIST ThermoML archive (doi:10.1016/j.fluid.2008.06.019)

Experiments:
[1] = 298.15 K; 101.33 kPa; Liquid
[2] = xn = mol fraction of the nth substance listed; conditions: 298.15 K, 101 kPa, Liquid

CCCO [propan-1-ol]
Conditions | mass density [kg/m3]
[1] | 800.61

Cc1ccccc1 [toluene] + CCCO
[2]
Conditions | mass density [kg/m3]
x2 = 0.0491 | 859.7
x2 = 0.0987 | 857.27
x2 = 0.2003 | 852.39
x2 = 0.2995 | 847.48
x2 = 0.4006 | 842.21
x2 = 0.5001 | 836.7
x2 = 0.6001 | 830.71
x2 = 0.7005 | 824.13
x2 = 0.8001 | 817.01
x2 = 0.9006 | 809.12
x2 = 0.9497 | 805

Cc1ccccc1 [toluene]
Conditions | mass density [kg/m3]
[1] | 862.23

CC(C)OC(C)C [diisopropyl ether] + CCCO
[2]
Conditions | mass density [kg/m3]
x1 = 0.0508 | 794.63
x1 = 0.0999 | 789.64
x1 = 0.2 | 779.84
x1 = 0.2998 | 770.67
x1 = 0.3993 | 762.07
x1 = 0.4999 | 754.19
x1 = 0.6006 | 746.71
x1 = 0.7007 | 739.41
x1 = 0.8001 | 732.66
x1 = 0.9015 | 725.59
x1 = 0.9514 | 722.22

CC(C)OC(C)C [diisopropyl ether] + Cc1ccccc1
[2]
Conditions | mass density [kg/m3]
x1 = 0.05 | 853.94
x1 = 0.0995 | 845.89
x1 = 0.2004 | 829.97
x1 = 0.2999 | 814.46
x1 = 0.4001 | 799.53
x1 = 0.5003 | 784.92
x1 = 0.6001 | 770.99
x1 = 0.7004 | 757.31
x1 = 0.8003 | 744.27
x1 = 0.9003 | 731.28
x1 = 0.9498 | 725.19

CC(C)OC(C)C [diisopropyl ether]
Conditions | mass density [kg/m3]
[1] | 719.17
